In patent US10278949B2, “Method for obtaining an extract rich in ellagic acid tannins from fruits that contain these compounds, and resulting extract” (UNIVERSIDAD DE COSTA RICA, priority 2011, dated 2019):
Marks after values point to notes of the source that are not given here.

Assays:
Type in all cases: physicochemical
Conditions in all cases: mean ± DE of three replicate experiments
DPPH radical removal = test: DPPH radical removal
Text: (§1) We confirmed the removal activity of the polyphenol rich extract from microfiltered blackberry juice using different methods (Chart 11), and this activity was compared with the flavonoid remover of quercetin radicals.

NO removal assay = test: NO removal assay
Method: as §1
Four hours of pretreatment with the blackberry extract reduced NO production in a dose dependent manner only when the LPS+IFNγ was incubated with the extract (no wash). If the extract is removed before the addition of LPS+IFNγ (with rinsing), inhibition of NO production was seen only in the highest concentration tested.

[1] = Antioxidant capacity (ORAC)
Text: as §1

DPPH IC50 (DPPH radical removal): 2.17 ± 0.08^b μg/mL
No Removal IC50 (NO removal assay): 6.57 ± 0.8^b μg/mL
SMILES: O=c1c(O)c(-c2ccc(O)c(O)c2)oc2cc(O)cc(O)c12 [Quercetin]
ORAC [1]: 2067 ± 81^b μM TE/g
